Measurements from US12514862B2, “Testosterone containing pharmaceutical composition” (Diurnal Limited, priority 2020, dated 2026).

What was measured:
[1] = DITEST-001 study: serum testosterone undecanoate and aqueous/lipid fractions of serum; assay type: in vivo, human
Text: There is an unmet need for a native oral testosterone therapy for men with androgen (testosterone) deficiency. Current therapy for most hypogonadal patients in Europe and the United States of America (USA) is with either intramuscular injections or gels. These therapies have the disadvantages of pain with injections, skin reactions, and potential spread to partners with gels. At the time this study was designed, there was only one oral formulation of testosterone undecanoate on the market in the UK, but at that time this was not approved in the USA. DITEST is a novel formulation of native testosterone. […] Testosterone undecanoate is considered mainly absorbed through intestinal lymphatics, along with dietary lipids, whilst DITEST was formulated to permit absorption without the requirement for dietary lipids. To examine the proportions absorbed through lymphatics, the aqueous and lipid fractions of serum were separated for the measurement of serum testosterone. Since this was a first-in-human study, participants were closely monitored as inpatients during dosing. […]
(§1) Twelve participants were to be recruited into each cohort (note: participants from Cohort 1 could be entered into Cohort 2 after a washout period of at least 3 months between cohorts). Participants were not recruited into Cohort 2 until the results of participants treated in Cohort 1 had been evaluated (this review determined if the intended dose for Cohort 2 needed to be adjusted). […]
(§2) • Testosterone serum concentrations after administration of a single dose of 120 mg or 200 mg DITEST and 80 mg testosterone undecanoate in the fed state, as measured by the primary PK parameters of maximum serum concentration (Cmax) and the area under the curve from 0 to 10 hours (AUC0-10). Secondary Endpoints • Testosterone serum concentrations after administration of a single 200 mg dose of DITEST in the fed and fasted states, as measured by the primary PK parameters of Cmax and AUC0-10. • AEs observed throughout the study. • Changes during the study in vital signs, ECG and safety laboratory data. […]

[2] = DITEST-001 study: safety (TEAEs, SAEs, ECG, vital signs); assay type: in vivo, human
Protocol: (§3) The study was conducted in male participants from 18 to 80 years of age requiring testosterone replacement therapy for primary or secondary hypogonadism. The study was a randomized, active control, single dose, 2-way cross-over study in 2 cohorts. In each cohort participants who met the entry criteria at screening and baseline were randomized to one of 2 sequences:
(§4) Cohort 1: single dose of 120 mg (3×40 mg) DITEST followed by a single dose of 80 mg (2×40 mg) testosterone undecanoate or a single dose of 80 mg (2×40 mg) testosterone undecanoate followed by a single dose of 120 mg (3×40 mg) DITEST. The 2 treatments were separated by a minimum of a 7-day washout period, with both treatments given in the fed state.
(§5) Cohort 2: single dose of 200 mg (5×40 mg) DITEST (fed) followed by a single dose of 200 mg DITEST (fasted) or a single dose of 200 mg DITEST (fasted) followed by a single dose of 200 mg (5×40 mg) DITEST (fed). The 2 treatments were separated by a minimum of a 7-day washout period.
Twelve participants were to be recruited into each cohort (note: participants from Cohort 1 could be entered into Cohort 2 after a washout period of at least 3 months between cohorts). Participants were not recruited into Cohort 2 until the results of participants treated in Cohort 1 had been evaluated (this review determined if the intended dose for Cohort 2 needed to be adjusted). No other testosterone treatments were allowed for the duration of each cohort (including the washout periods) (note: participants who entered Cohort 1 were able to revert to their usual testosterone treatment, if applicable, on completion of this cohort and prior to screening for Cohort 2, if applicable). Each participant was required to attend the study site for a minimum of either 4 or 5 visits per cohort: a screening assessment, an evaluation of baseline testosterone levels after the washout period from the participant's current medication (only for participants currently on testosterone replacement therapy), both dosing days, and a follow-up visit at the end of the study. On each dosing day, participants were to remain in the study site and PK blood and saliva samples were taken at −0.5, −0.25 (Cohort 1 only), 0, 0.5, 1, 1.5, 2, 2.5, 3, 3.5, 4, 4.5, 5, 5.5, 6, 7, 8, and 10 hours. Further PK blood and saliva samples could be taken at up to 2 additional timepoints per period if deemed necessary based on emerging data. […] If necessary, for practical reasons, participants could stay overnight at the study site or at a nearby hotel the night before and/or the night after the dosing days.
as §2, with “data. Exploratory Endpoints: • To assess the levels of testosterone and DHT in serum. • To assess the levels of testosterone and testosterone undecanoate in the lipid and aqueous fractions of blood (testosterone undecanoate only measured in participants in the testosterone undecanoate arm). • To assess the levels of intact testosterone undecanoate in serum for participants who received testosterone undecanoate. • To compare testosterone concentrations in venous and capillary blood samples collected using the Mitra microsampling device with serum concentrations. • To compare the concentrations of testosterone in saliva with serum concentrations. • To evaluate the concentrations of androstenedione in saliva Statistical Methods” for “data.”

[3] = DITEST-001 single dose cross-over study: serum total testosterone pharmacokinetics; assay type: in vivo, human; details: DITEST both doses fed and 200 mg fasted; testosterone undecanoate fed; hypogonadal men
Protocol: as §3, §4, §5, §1

[4] = cited from earlier work

Row | Compound | Lipid fraction of serum testosterone undecanoate as part of total serum measurement of testosterone undecanoate ([1]; after 80 mg testosterone undecanoate) | Serum testosterone undecanoate levels relative to the testosterone levels ([1]; after dosing with 80 mg testosterone undecanoate) [fold] | Lipid fraction of testosterone relative to the serum concentration ([1]; single oral dose) | QT prolongation, reported as related to study intervention ([2]; Cohort 1: testosterone undecanoate 80 mg and DITEST 120 mg) | Total number of TEAEs reported ([2]; DITEST 120 mg fed, 200 mg fed and 200 mg fasted, testosterone undecanoate 80 mg fed) | Mean change in diastolic blood pressure ([2]; single doses) [mmHg] | Mean change in heart rate ([2]; single doses) [bpm] | Mean change in systolic blood pressure ([2]; single doses) [mmHg] | SAEs or severe AEs ([2]; single doses) | Serum testosterone levels following dosing [3] | Non-aqueous Solubility, Alcohol ([4]; (wt/vol) at 20° C.) [in 5 parts] | Non-aqueous Solubility, Chloroform ([4]; (wt/vol) at 20° C.) [in 2 parts] | Non-aqueous Solubility, Dehydrated alcohol ([4]; (wt/vol) at 20° C.) [in 6 parts] | Non-aqueous Solubility, Dioxane ([4]; (wt/vol) at 20° C.) | Non-aqueous Solubility, Ether ([4]; (wt/vol) at 20° C.) [in 100 parts] | Non-aqueous Solubility, Ethyl oleate ([4]; (wt/vol) at 20° C.) | Non-aqueous Solubility, Vegetable oils ([4]; (wt/vol) at 20° C.) | Aqueous Solubility ([4]; at 20° C. in water)
1 | CCCCCCCCCCC(=O)O[C@H]1CC[C@H]2[C@@H]3CCC4=CC(=O)CC[C@]4(C)[C@H]3CC[C@]12C [Testosterone Undecanoate, testosterone undecanoate] | over half | 10 | approximately 1/10 | One participant had QT prolongation | 8 | 1.5 | 8.5 | 12.8 | One SAE | within the physiological range | – | – | – | – | – | – | – | –
2 | C[C@]12CC[C@H]3[C@@H](CCC4=CC(=O)CC[C@@]43C)[C@@H]1CC[C@@H]2O [Testosterone, (8R,9S,10R,13S,14S,17S)-17-hydroxy-10,13-dimethyl-1,2,6,7,8,9,11,12,14,15,16,17-dodecahydrocyclopent a[a]phenanthren-3-one] | – | – | – | – | – | – | – | – | – | – | 1 | 1 | 1 | soluble | 1 | slightly soluble | soluble | <1 mg/mL (insoluble) at 20 °C in water
